Here are results for 23 molecules from US20240158412A1 (Faxian Therapeutics, LLC, priority 2021, published 2024).

Structures are written as SMILES.
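Also: fluorescence intensity readout of USP7 enzymatic activity, reaction incubated 90 min at room temperature.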

USP7, sequence (Q93009 whole entry): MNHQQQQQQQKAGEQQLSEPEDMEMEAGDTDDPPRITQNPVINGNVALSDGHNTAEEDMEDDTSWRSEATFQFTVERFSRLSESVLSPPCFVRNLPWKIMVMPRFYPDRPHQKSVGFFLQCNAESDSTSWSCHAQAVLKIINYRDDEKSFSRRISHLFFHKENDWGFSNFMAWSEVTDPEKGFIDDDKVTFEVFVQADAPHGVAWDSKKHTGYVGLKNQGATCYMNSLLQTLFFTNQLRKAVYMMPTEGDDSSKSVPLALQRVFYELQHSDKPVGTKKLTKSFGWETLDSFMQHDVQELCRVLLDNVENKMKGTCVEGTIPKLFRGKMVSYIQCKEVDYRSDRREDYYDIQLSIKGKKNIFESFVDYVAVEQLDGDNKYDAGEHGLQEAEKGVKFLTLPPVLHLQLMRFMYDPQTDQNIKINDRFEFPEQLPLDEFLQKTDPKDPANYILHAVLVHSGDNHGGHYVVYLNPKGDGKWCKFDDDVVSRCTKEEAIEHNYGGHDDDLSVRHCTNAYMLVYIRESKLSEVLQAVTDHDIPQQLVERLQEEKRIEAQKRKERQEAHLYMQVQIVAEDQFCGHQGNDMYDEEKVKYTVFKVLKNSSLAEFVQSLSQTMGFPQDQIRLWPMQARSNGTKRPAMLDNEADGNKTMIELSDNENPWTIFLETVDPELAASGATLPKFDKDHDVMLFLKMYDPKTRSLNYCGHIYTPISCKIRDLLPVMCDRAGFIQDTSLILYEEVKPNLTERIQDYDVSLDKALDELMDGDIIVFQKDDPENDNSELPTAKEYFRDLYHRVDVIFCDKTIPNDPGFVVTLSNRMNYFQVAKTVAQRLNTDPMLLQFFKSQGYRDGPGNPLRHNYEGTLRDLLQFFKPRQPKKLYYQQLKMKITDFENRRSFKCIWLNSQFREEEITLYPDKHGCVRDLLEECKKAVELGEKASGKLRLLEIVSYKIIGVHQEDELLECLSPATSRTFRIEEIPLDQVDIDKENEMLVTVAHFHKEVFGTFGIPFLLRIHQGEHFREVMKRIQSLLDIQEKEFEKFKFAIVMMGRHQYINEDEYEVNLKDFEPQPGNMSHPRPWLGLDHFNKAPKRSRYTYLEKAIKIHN

This experiment addresses USP7 (Homo sapiens, UniProt Q93009). In words: biochemical.
As a reminder, the IC50 is the concentration that gives 50% inhibition. Read a high IC50 as a need for much substance. `C[C@]1(CO)C[C@H](N2CCOc3cc(C(F)(F)F)cc(-c4ccnc5cc(CN6C(=O)CCC6=O)sc45)c32)CN1` [Example 224, 1-((7-(4-((3S,5R)-5-(hydroxymethyl)-5-methylpyrrolidin-3-yl)-7-(trifluoromethyl)-3,4-dihydro-2H-benzo[b][1,4]oxazin-5-yl)thieno[3,2-b]pyridin-2-yl)methyl)pyrrolidine-2,5-dione] displayed an IC50 of less than 10 nM.
In the case of `O=c1cc2n(c(=O)n1Cc1cc3nccc(-c4cc(Cl)cc5c4N([C@H]4CCNC4)CCC5)c3s1)CCC2` [Example 106, (S)-2-((7-(6-chloro-1-(pyrrolidin-3-yl)-1,2,3,4-tetrahydroquinolin-8-yl)thieno[3,2-b]pyridin-2-yl)methyl)-6,7-dihydropyrrolo[1,2-c]pyrimidine-1,3(2H,5H)-dione] it was less than 10 nM.
As for `N#Cc1cc2c(c(-c3ccnc4cc(CN5C(=O)CCC5=O)sc34)c1)N([C@H]1CCNC1)CCC2` [Example 82, (S)-8-(2-((2,5-dioxopyrrolidin-1-yl)methyl)thieno[3,2-b]pyridin-7-yl)-1-(pyrrolidin-3-yl)-1,2,3,4-tetrahydroquinoline-6-carbonitrile], the half-maximal inhibitory concentration (IC50) was less than 10 nM.
In the case of `N[C@@H]1CCN(C2CCOc3cc(Cl)cc(-c4ccnc5cc(CN6C(=O)CCC6=O)sc45)c32)C1` (stereo in doubt) [Example 230b, 1-((7-((R)-4-((R)-3-aminopyrrolidin-1-yl)-7-chlorochroman-5-yl)thieno[3,2-b]pyridin-2-yl)methyl)pyrrolidine-2,5-dione] it was greater than 1000 nM; in that of `O=C1CCC(=O)N1Cc1cc2nccc(-c3cc(Cl)cc4c3C(N3CCNCC3)CCO4)c2s1` (single isomer, unassigned) [Example 52b], less than 10 nM.
In the case of `O=c1ccn(C2CC2)c(=O)n1Cc1cc2nccc(-c3cc(C(F)(F)F)cc4c3N(C3CNC5(CCC5)C3)CCC4)c2s1` (single isomer, unassigned) [Example 162b] it was 101 to 1000 nM; in that of `Cn1ccnc(Cc2cc3nccc(-c4cc(Cl)cc5c4N([C@@H]4CNC6(CCC6)C4)CCC5)c3s2)c1=O` (stereo in doubt) [Example 160, 3-((7-(6-chloro-1-(5-azaspiro[3.4]octan-7-yl)-1,2,3,4-tetrahydroquinolin-8-yl)thieno[3,2-b]pyridin-2-yl)methyl)-1-methylpyrazin-2(1H)-one], 101 to 1000 nM; in that of `CC1(C)CC(N2CCOc3cc(C#N)cc(-c4ccnc5cc(Cn6c(=O)ccn(CC(F)(F)F)c6=O)sc45)c32)CN1` (single isomer, unassigned) [Example 133a], less than 10 nM.
The result for `CC1(C)OC(=O)C(Cc2cc3nccc(-c4cc(Cl)cc5c4N([C@@H]4CNC6(CCC6)C4)CCC5)c3s2)C(=O)O1` [Example 156, (S)-5-((7-(6-chloro-1-(5-azaspiro[3.4]octan-7-yl)-1,2,3,4-tetrahydroquinolin-8-yl)thieno[3,2-b]pyridin-2-yl)methyl)-2,2-dimethyl-1,3-dioxane-4,6-dione] reads 101 to 1000 nM; that for `C[C@]1(CO)C[C@H](N2CCOc3cc(C#N)cc(-c4ccnc5cc(Cn6ncc(C7(C(F)(F)F)CC7)cc6=O)sc45)c32)CN1` [Example 222, 4-[(3S,5R)-5-(hydroxymethyl)-5-methyl-pyrrolidin-3-yl]-5-[2-[[6-oxo-4-[1-(trifluoromethyl)cyclopropyl]pyridazin-1-yl]methyl]thieno[3,2-b]pyridin-7-yl]-2,3-dihydro-1,4-benzoxazine-7-carbonitrile], less than 10 nM.
The molecule `C[C@]1(CO)C[C@H](N2CCCc3cc(C#N)cc(-c4ccnc5cc(CN6C(=O)C7CC7C6=O)sc45)c32)CN1` (stereo partly drawn) [Example 206, 8-(2-((2,4-dioxo-3-azabicyclo[3.1.0]hexan-3-yl)methyl)thieno[3,2-b]pyridin-7-yl)-1-((3S,5R)-5-(hydroxymethyl)-5-methylpyrrolidin-3-yl)-1,2,3,4-tetrahydroquinoline-6-carbonitrile] showed an IC50 of less than 10 nM.
Take `CC1(C)CC(N2CCOc3cc(C#N)cc(-c4ccnc5cc(Cn6c(=O)ccn(CC(F)(F)F)c6=O)sc45)c32)CN1` (single isomer, unassigned) [Example 133b]: the IC50 was in the range of 101 to 1000 nM.
Consider `O=C1CCC(=O)N1Cc1cc2nccc(-c3cc(Cl)cc4c3N([C@H]3CO[C@H](CO)C3)CCO4)c2s1` (single isomer, unassigned) [Example 227b], for which the IC50 lay in the range of 101 to 1000 nM.
In the case of `C[C@]1(CO)C[C@H](N2CCCc3cc(Cl)cc(-c4ccnc5c(F)c(CN6C(=O)CCC6=O)sc45)c32)CN1` [Example 210, 1-[[7-[6-chloro-1-[(3S,5R)-5-(hydroxymethyl)-5-methyl-pyrrolidin-3-yl]-3,4-dihydro-2H-quinolin-8-yl]-3-fluoro-thieno[3,2-b]pyridin-2-yl]methyl]pyrrolidine-2,5-dione] it was less than 10 nM; in that of `O=C1CCC(=O)N1Cc1cc2nccc(-c3cc(Cl)cc4c3N([C@@H]3CNC(CO)(CO)C3)CCC4)c2s1` (single isomer, unassigned) [Example 181a], less than 10 nM.
In the case of `Cn1cc(Cc2cc3nccc(-c4cc(Cl)cc5c4N([C@H]4CCNC4)CCC5)c3s2)nn1` (single isomer, unassigned) [Example 99] it was 10 to 100 nM; in that of `O=C1COC(=O)N1Cc1cc2nccc(-c3cc(Cl)cc4c3N(C3CNC3)CCC4)c2s1` [Example 27, 3-[[7-[1-(azetidin-3-yl)-6-chloro-3,4-dihydro-2H-quinolin-8-yl]thieno[3,2-b]pyridin-2-yl]methyl]oxazolidine-2,4-dione], 10 to 100 nM; in that of `N#Cc1cc2c(c(-c3ncnc4cc(Cn5c(=O)ccn(CC(F)(F)F)c5=O)sc34)c1)N([C@@H]1CCNC1)CCC2` [Example 93, (R)-8-(6-((2,6-dioxo-3-(2,2,2-trifluoroethyl)-2,3-dihydropyrimidin-1(6H)-yl)methyl)thieno[3,2-d]pyrimidin-4-yl)-1-(pyrrolidin-3-yl)-1,2,3,4-tetrahydroquinoline-6-carbonitrile], less than 10 nM.
`Cc1ccnn(Cc2cc3nccc(-c4cc(C(F)(F)F)cc5c4N(C4CNC6(CCC6)C4)CCO5)c3s2)c1=O` (single isomer, unassigned) [Example 176a] registered an IC50 of 101 to 1000 nM.
The result for `O=C1CCC(=O)N1Cc1cc2nccc(-c3cc(Cl)cc4c3N(C3CNC5(CCC5)C3)CCO4)c2s1` (single isomer, unassigned) [Example 171b] reads less than 10 nM; that for `Cn1ccc(=O)n(Cc2cc3nccc(-c4cc(C#N)cc5c4N(C4CNC(C)(C)C4)CCC5)c3s2)c1=O` (stereo in doubt) [Example 121, (S)-1-(5,5-dimethylpyrrolidin-3-yl)-8-(2-((3-methyl-2,6-dioxo-3,6-dihydropyrimidin-1(2H)-yl)methyl)thieno[3,2-b]pyridin-7-yl)-1,2,3,4-tetrahydroquinoline-6-carbonitrile], less than 10 nM; that for `CC1(C)C[C@H](N2CCCc3cc(Cl)cc(-c4ccnc5cc(CN6C(=O)CCC6=O)sc45)c32)CN1` [Example 119, (S)-1-((7-(6-chloro-1-(5,5-dimethylpyrrolidin-3-yl)-1,2,3,4-tetrahydroquinolin-8-yl)thieno[3,2-b]pyridin-2-yl)methyl)pyrrolidine-2,5-dione], less than 10 nM.
In the case of `CC1(c2cnn(Cc3cc4nccc(-c5cc(C#N)cc6c5N([C@@H]5CN[C@@H](CO)C5)C[C@H]5C[C@@H]65)c4s3)c(=O)c2)CC1` (single isomer, unassigned) [Example 195a] it was less than 10 nM.
